According to patent publication US11090304B2 (Amgen Inc., priority 2018, dated 2021):
Like-named read-outs stand apart in the source and are kept apart here.

Legend:
[1] = system: Phosphorylation of ERK1/2 in MIA PaCa-2 cells; assay: Phospho-ERK1/2 MSD assay in MIA PaCa-2 cells; format: cell-based; details: read-out: p-ERK IC50 (2 h; MIA PaCa-2), 2 h compound treatment
Procedure, shortened: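 MIA PaCa-2 or A549 cells were treated with a compound dose-response titration for 2 or 4 h at 37 °C, then stimulated with 10 ng/mL EGF for 10 min. Phospho-ERK1/2 in RIPA lysates was measured by MSD whole-cell lysate immunoassay, and IC50 came from a 4-parameter logistic fit.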

[2] = biological target: GDP-bound KRAS protein (aa 1-169), containing both G12C and C118A amino acid substitutions (Homo sapiens, UniProt P01116, C118A/G12C); assay: Coupled nucleotide exchange assay (SOS-mediated, AlphaScreen); format: biochemical; details: 5 min compound pre-incubation
Sequence of GDP-bound KRAS protein (aa 1-169), containing both G12C and C118A amino acid substitutions (P01116 1-169 isoform P01116-2 G12C/C118A): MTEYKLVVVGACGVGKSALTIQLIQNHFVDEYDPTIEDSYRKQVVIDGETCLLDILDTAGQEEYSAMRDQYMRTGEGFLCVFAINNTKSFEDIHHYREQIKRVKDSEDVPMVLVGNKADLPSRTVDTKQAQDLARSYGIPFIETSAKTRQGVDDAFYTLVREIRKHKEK

SMILES	IC50 ([1]; Homo sapiens, MIA PaCa-2, 2 h)	Coupled exchange IC50 (5 min) [2]	IC50 [1]	IC50 ([2]; read-out: Coupled exchange IC50 (5 min))
C=CC(=O)N1CCN(c2nc(=O)n(-c3ccccc3C(C)C)c3nc(-c4ccccc4F)c(C)cc23)[C@@H](C)C1 [Example 74-1, 7-(2-Fluorophenyl)-6-methyl-4-((2S)-2-methyl-4-(2-propenoyl)-1-piperazinyl)-1-(2-(2-propanyl)phenyl)pyrido[2,3-d]pyrimidin-2(1H)-one]	621 nM	0.951 | nda μM	–	–
C=CC(=O)N1CCN(c2nc(=O)n(-c3c(C)ccnc3C(C)C)c3nc(-c4ccccc4F)c(C)cc23)[C@@H](C)C1 [Example 74-2, 7-(2-fluorophenyl)-6-methyl-1-(4-methyl-2-(2-propanyl)-3-pyridinyl)-4-((2S)-2-methyl-4-(2-propenoyl)-1-piperazinyl)pyrido[2,3-d]pyrimidin-2(1H)-one]	300 nM	0.228 | nda μM	–	–
C=CC(=O)N1CCN(c2nc(=O)n(-c3c(C)ccnc3C(C)C)c3nc(-c4c(O)cccc4F)c(C)cc23)[C@@H](C)C1 [Example 74-3, 7-(2-fluoro-6-hydroxyphenyl)-6-methyl-1-(4-methyl-2-(2-propanyl)-3-pyridinyl)-4-((2S)-2-methyl-4-(2-propenoyl)-1-piperazinyl)pyrido[2,3-d]pyrimidin-2(1H)-one]	347 nM	0.136 | nda μM	–	–
C=CC(=O)N1CCN(c2nc(=O)n(-c3ccccc3C(C)C)c3nc(-c4c(F)cccc4C#N)c(Cl)cc23)[C@@H](C)C1 [Example 98, 2-(6-Chloro-4-((2S)-2-methyl-4-(2-propenoyl)-1-piperazinyl)-2-oxo-1-(2-(2-propanyl)phenyl)-1,2-dihydropyrido[2,3-d]pyrimidin-7-yl)-3-fluorobenzonitrile]	207 nM	0.27 | nda μM	–	–
C=CC(=O)N1CCN(c2nc(=O)n(-c3ncncc3C(C)C)c3nc(-c4ccccc4F)c(Cl)cc23)[C@@H](C)C1 [Example 99, 6-Chloro-7-(2-fluorophenyl)-4-((2S)-2-methyl-4-(2-propenoyl)-1-piperazinyl)-1-(5-(2-propanyl)-4-pyrimidinyl)pyrido[2,3-d]pyrimidin-(1H)-one]	–	–	72 nM	237 nM
C=CC(=O)N1CCN(c2nc(=O)n(-c3cccnc3CC(C)C)c3nc(-c4ccccc4F)c(Cl)cc23)[C@@H](C)C1 [Example 101, 6-Chloro-7-(2-fluorophenyl)-4-((2S)-2-methyl-4-(2-propenoyl)-1-piperazinyl)-1-(2-(2-methylpropyl)-3-pyridinyl)pyrido[2,3-d]pyrimidin-2(1H)-one]	148 nM	0.147 | nda μM	–	–
C=CC(=O)N1CCN(c2nc(=O)n(-c3c(C)cccc3C(C)C)c3nc(-c4ccccc4F)c(C)cc23)[C@@H](C)C1 [Example 102, 7-(2-Fluorophenyl)-6-methyl-1-(2-methyl-6-(2-propanyl)phenyl)-4-((2S)-2-methyl-4-(2-propenoyl)-1-piperazinyl)pyrido[2,3-d]pyrimidin-2(1H)-one]	667 nM	0.421 | nda μM	–	–
C=CC(=O)N1CCN(c2nc(=O)n(-c3c(CC)cccc3CC)c3cc(-c4ccccc4F)c(Cl)cc23)[C@@H](C)C1 [Example 103, 6-Chloro-1-(2,6-diethylphenyl)-7-(2-fluorophenyl)-4-((2S)-2-methyl-4-(2-propenoyl)-1-piperazinyl)-2(1H)-quinazolinone]	178 nM	0.099 | nda μM	–	–
C=CC(=O)N1CCN(c2nc(=O)n(-c3ncccc3C(C)C)c3cc(-c4ccccc4F)c(Cl)cc23)[C@@H](C)C1 [Example 104, 6-Chloro-7-(2-fluorophenyl)-4-((2S)-2-methyl-4-(2-propenoyl)-1-piperazinyl)-1-(3-(2-propanyl)-2-pyridinyl)-2(1H)-quinazolinone]	78 nM	0.062 | nda μM	–	–
C=CC(=O)N1CCN(c2nc(=O)n(-c3scnc3C(C)C)c3cc(-c4ccccc4F)c(Cl)cc23)[C@@H](C)C1 [Example 105, 6-Chloro-7-(2-fluorophenyl)-4-((2S)-2-methyl-4-(2-propenoyl)-1-piperazinyl)-1-(4-(2-propanyl)-1,3-thiazol-5-yl)-2(1H)-quinazolinone]	65 nM	0.051 | nda μM	–	–
C=CC(=O)N1CCN(c2nc(=O)n(-c3c(C)cccc3C(C)C)c3cc(-c4c(O)cccc4F)c(Cl)cc23)[C@@H](C)C1 [Example 106, 6-Chloro-7-(2-fluoro-6-hydroxyphenyl)-1-(2-methyl-6-(2-propanyl)phenyl)-4-((2S)-2-methyl-4-(2-propenoyl)-1-piperazinyl)-2(1H)-quinazolinone]	105 nM	0.074 | nda μM	–	–
C=CC(=O)N1CCN(c2nc(=O)n(-c3ccccc3C(C)C)c3cc(-c4ccccc4F)c(Cl)nc23)[C@@H](C)C1 [Example 110, 6-Chloro-7-(2-fluorophenyl)-4-((2S)-2-methyl-4-(2-propenoyl)-1-piperazinyl)-1-(2-(2-propanyl)phenyl)pyrido[3,2-d]pyrimidin-2(1H)-one]	426 nM	0.166 | nda μM	–	–
C=CC(=O)N1CCN(c2nc(=O)n(-c3c(C)ccnc3C(C)C)c3nc(-c4ccccc4F)c(Cl)nc23)[C@@H](C)C1 [Example 111, 6-Chloro-7-(2-fluorophenyl)-1-(4-methyl-2-(2-propanyl)-3-pyridinyl)-4-((2S)-2-methyl-4-(2-propenoyl)-1-piperazinyl)-2(1H)-pteridinone]	195 nM	0.174 | nda μM	–	–
C=CC(=O)N1CCN(c2nc(=S)n(-c3c(CC)cccc3CC)c3cc(-c4ccccc4F)c(Cl)cc23)[C@@H](C)C1 [Example 116, 1-((3S)-4-(6-Chloro-1-(2,6-diethylphenyl)-7-(2-fluorophenyl)-2-sulfanylidene-1,2-dihydro-4-quinazolinyl)-3-methyl-1-piperazinyl)-2-propen-1-one]	543 nM	0.232 | nda μM	–	–
C=CC(=O)N1CCN(c2cc(=O)n(-c3ccccc3C(C)C)c3nc(-c4ccccc4F)c(Cl)cc23)[C@@H](C)C1 [Example 126, 6-Chloro-7-(2-fluorophenyl)-4-((2S)-2-methyl-4-(2-propenoyl)-1-piperazinyl)-1-(2-(2-propanyl)phenyl)-1,8-naphthyridin-2(1H)-one]	1720 nM	2.05 | nda μM	–	–
C=CC(=O)N1CCN(c2nc(=O)n(-c3c(C(=O)O)cccc3C(C)C)c3nc(-c4ccccc4F)c(Cl)cc23)[C@@H](C)C1 [Example 132, 2-(6-Chloro-7-(2-fluorophenyl)-4-((2S)-2-methyl-4-(2-propenoyl)-1-piperazinyl)-2-oxopyrido[2,3-d]pyrimidin-1(2H)-yl)-3-(2-propanyl)benzoic acid]	10000 nM	0.107 | nda μM	–	–

The next lines start with the values.

IC50 ([1]; Homo sapiens, MIA PaCa-2, 2 h)	Coupled exchange IC50 (5 min) [2]	IC50 [1]	IC50 ([2]; read-out: Coupled exchange IC50 (5 min))	SMILES
52 nM	0.08 | nda μM	–	–	C=CC(=O)N1CCN(c2nc(=O)n(-c3c(C)cc(CN(C)C)cc3C(C)C)c3nc(-c4ccccc4F)c(Cl)cc23)[C@@H](C)C1 [Example 80-1, 6-Chloro-1-(4-((dimethylamino)methyl)-2-methyl-6-(2-propanyl)phenyl)-7-(2-fluorophenyl)-4-((2S)-2-methyl-4-(2-propenoyl)-1-piperazinyl)pyrido[2,3-d]pyrimidin-2(1H)-one]
4300 nM	3.95 | nda μM	–	–	C=CC(=O)N1CCN(c2nc(CN(C)C)c(-c3ccccc3C(C)C)c3nc(-c4ccccc4F)c(Cl)cc23)[C@@H](C)C1 [Example 86-1, 1-((3S)-4-(3-Chloro-7-((dimethylamino)methyl)-2-(2-fluorophenyl)-8-(2-isopropylphenyl)-1,6-naphthyridin-5-yl)-3-methylpiperazin-1-yl)prop-2-en-1-one]
11 nM	0.034 | nda μM	–	–	C=CC(=O)N1C[C@H](C)N(c2nc(=O)n(-c3c(C(C)C)ncnc3C(C)C)c3nc(-c4ccccc4F)c(Cl)cc23)[C@@H](C)C1 [Example 87-1, 6-Chloro-4-((2S,6S)-2,6-dimethyl-4-(2-propenoyl)-1-piperazinyl)-1-(4,6-di(2-propanyl)-5-pyrimidinyl)-7-(2-fluorophenyl)pyrido[2,3-d]pyrimidin-2(1H)-one]
33 nM	0.035 | nda μM	–	–	C=CC(=O)N1C[C@@H](C)N(c2nc(=O)n(-c3c(C(C)C)ncnc3C(C)C)c3nc(-c4ccccc4F)c(Cl)cc23)[C@@H](C)C1 [Example 87-2, 6-chloro-4-((2R,6S)-2,6-dimethyl-4-(2-propenoyl)-1-piperazinyl)-1-(4,6-di(2-propanyl)-5-pyrimidinyl)-7-(2-fluorophenyl)pyrido[2,3-d]pyrimidin-2(1H)-one]
262 nM	0.254 | nda μM	–	–	C=CC(=O)N1CCN(c2nc(=O)n(-c3c(C(C)C)ncnc3C(C)C)c3nc(-c4ccc(C#N)cc4F)c(Cl)cc23)[C@@H](C)C1 [Example 87-4, 4-(6-chloro-1-(4,6-di(2-propanyl)-5-pyrimidinyl)-4-((2S)-2-methyl-4-(2-propenoyl)-1-piperazinyl)-2-oxo-1,2-dihydropyrido[2,3-d]pyrimidin-7-yl)-3-fluorobenzonitrile]
181 nM	0.251 | nda μM	–	–	C=CC(=O)N1CCN(c2nc(=O)n(-c3c(C(C)C)ncnc3C(C)C)c3nc(-c4ccc(F)cc4N)c(Cl)cc23)[C@@H](C)C1 [Example 87-5, 7-(2-amino-4-fluoropheny-1)-6-chloro-1-(4,6-di(2-propanyl)-5-pyrimidinyl)-4-((2S)-2-methyl-4-(2-propenoyl)-1-piperazinyl)pyrido[2,3-d]pyrimidin-2(1H)-one]
